Measurements as given in patent publication US9617256B2 (priority 2007, dated 2017).
In brackets after ≈: the same amount, converted by molar mass.

Tests used:
[1] = tested on: AABA1060 (clinical isolate of Acinetobacter baumannii); assay: MIC broth microdilution, AABA1060; format: cell-based; conditions: Acinetobacter baumannii, read-out: MIC AABA1060
Procedure, shortened: (§1)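 Inocula prepared from 0.5 McFarland suspensions (final 3×10^5–7×10^5 CFU/mL) were added to 2-fold drug dilution series in cation-adjusted Mueller-Hinton broth. Plates stood 18-24 hours at 35° C. under ambient air.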

[2] = tested on: AECO001 HSA AGP; assay: MIC broth microdilution, AECO001 HSA AGP; format: cell-based, E. coli; conditions: Escherichia coli
Description: Bacterial isolates were cultivated from −70° C. frozen stocks by overnight passages at 35° C. in ambient air on Mueller-Hinton agar (Beckton Dickinson, Franklin Lakes, N.J.). Clinical isolates tested were obtained from various geographically diverse hospitals in the US and abroad (Focus Diagnostics, Herndon, Va. and JMI, North Liberty, Iowa). Quality control strains were from the American Type Culture Collection (ATCC; Rockville, Md.). Additional primary panel strains were generated using standard molecular biology techniques.
Minimum Inhibitory Concentrations (MICs) were determined by the broth microdilution method in accordance with the Clinical and Laboratory Standards Institute (CLSI) guidelines. In brief, organism suspensions were adjusted to a 0.5 McFarland standard to yield a final inoculum between 3×10^5 and 7×10^5 colony-forming units (CFU)/mL. Drug dilutions and inocula were made in sterile, cation adjusted Mueller-Hinton Broth (Beckton Dickinson). An inoculum volume of 100 μL was added to wells containing 100 μL of broth with 2-fold serial dilutions of drug. All inoculated microdilution trays were incubated in ambient air at 35° C. for 18-24 hours. […] Performance of the assay was monitored by the use of laboratory quality-control strains and levofloxacin, a compound with a defined MIC spectrum, in accordance with CLSI guidelines.
*AECO001 is ATCC25922, AECO063 is ATCC25922 bearing an acrAB mutation, APAE001 is ATCC27853, APAE006 is a strain of P. aeruginosa in which all efflux pumps are inactivated, APAE006+PMBN indicates MICs with the indicated strain in the presence of 8 micrograms per milliliter of polymyxin B nonapeptide, AABA1060 is a clinical isolate of Acinetobacter baumannii, ASAU001 is a laboratory strain of S. aureus (ATCC29213).

[3] = tested on: ASAU001 (laboratory strain of S. aureus, ATCC29213); assay: MIC broth microdilution, ASAU001; format: cell-based; conditions: Staphylococcus aureus, ATCC29213, read-out: MIC ASAU001
Procedure, shortened: as §1

[4] = tested on: APAE006 in the presence of 8 micrograms per milliliter of polymyxin B nonapeptide; format: cell-based, P. aeruginosa; conditions: in the presence of 8 micrograms per milliliter of polymyxin B nonapeptide
Procedure, shortened: (§2)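 Minimum inhibitory concentrations followed CLSI broth microdilution guidelines: cation-adjusted Mueller-Hinton broth, 2-fold serial drug dilutions, final inoculum 3×10^5–7×10^5 CFU/mL, ambient air at 35° C. for 18-24 hours. Quality-control strains and levofloxacin monitored performance.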

[5] = tested on: AECO001 (ATCC25922); assay: MIC broth microdilution, AECO001; format: cell-based, E. coli; conditions: Escherichia coli, ATCC25922, read-out: MIC AECO001
Procedure, shortened: as §1

[6] = tested on: AECO063 (ATCC25922 bearing an acrAB mutation); assay: microbe, parasite or virus in culture; format: cell-based, E. coli; conditions: Escherichia coli, ATCC25922, read-out: MIC AECO063
Procedure, shortened: as §1

[7] = tested on: APAE006 (strain of P. aeruginosa in which all efflux pumps are inactivated); assay: microbe, parasite or virus in culture; format: cell-based; conditions: Pseudomonas aeruginosa, read-out: MIC APAE006, P. aeruginosa, all efflux pumps inactivated
Procedure, shortened: as §2

[8] = tested on: APAE001 (ATCC27853); assay: MIC broth microdilution, APAE001; format: cell-based, P. aeruginosa; conditions: Pseudomonas aeruginosa, ATCC27853, read-out: MIC APAE001, APAE001 is ATCC27853
Procedure, shortened: as §1

C[C@@H](O)[C@H](NC(=O)c1ccc(N2CCC(c3ccc(CN4CCOCC4)cc3)CC2)cc1)C(=O)NO [Example 42-7, N-((1S,2R)-2-Hydroxy-1-hydroxycarbamoyl-propyl)-4-[4-(4-morpholin-4-ylmethyl-phenyl)-piperidin-1-yl]-benzamide]
MIC [1]: 16 to 64 µg/mL (≈ 32.2 to 129 µM) | MIC [2]: 16 to 64 µg/mL (≈ 32.2 to 129 µM) | MIC [3]: > 64 µg/mL | MIC APAE006 + PMBN [4]: A (MIC's of 2.0 μg/mL or less = A) | MIC [5]: 16 to 64 µg/mL (≈ 32.2 to 129 µM) | MIC [6]: 16 to 64 µg/mL (≈ 32.2 to 129 µM) | MIC [7]: < 2 µg/mL | MIC [8]: 16 to 64 µg/mL (≈ 32.2 to 129 µM)

C[C@@H](O)[C@H](NC(=O)c1ccc(N2CCN(c3ccc(CN4CCOCC4)cc3)CC2)cc1)C(=O)NO [Example 43-7, N-((1S,2R)-2-Hydroxy-1-hydroxycarbamoyl-propyl)-4-[4-(4-morpholin-4-ylmethyl-phenyl)-piperazin-1-yl]-benzamide]
MIC [1]: > 64 µg/mL | MIC [2]: > 64 µg/mL | MIC [3]: > 64 µg/mL | MIC APAE006 + PMBN [4]: A (MIC's of 2.0 μg/mL or less = A) | MIC [5]: > 64 µg/mL | MIC [6]: 16 to 64 µg/mL (≈ 32.2 to 129 µM) | MIC [7]: < 2 µg/mL | MIC [8]: 16 to 64 µg/mL (≈ 32.2 to 129 µM)

CC(C)C(C(=O)NO)C(=O)Nc1ccc(C#Cc2ccc(CN3CCOCC3)cc2)cc1 (stereo not shown) [Example 60-5, N-Hydroxy-2-isopropyl-N′-[4-(4-morpholin-4-ylmethyl-phenylethynyl)-phenyl]-malonamide]
MIC [1]: > 64 µg/mL | MIC [2]: > 64 µg/mL | MIC [3]: > 64 µg/mL | MIC APAE006 + PMBN [4]: B (MIC's of greater than 2.0 μg/mL to 16.0 μg/mL = B) | MIC [5]: 16 to 64 µg/mL (≈ 36.7 to 147 µM) | MIC [6]: 16 to 64 µg/mL (≈ 36.7 to 147 µM) | MIC [7]: 16 to 64 µg/mL (≈ 36.7 to 147 µM) | MIC [8]: > 64 µg/mL

O=C(NC(C(=O)NO)C1CCNC1)c1ccc(C#Cc2ccc(CN3CCOCC3)cc2)cc1 (stereo not shown) [Example 64-7, N-(hydroxycarbamoyl-pyrrolidin-3-yl-methyl)-4-(4-morpholin-4-ylmethyl-phenylethynyl)-benzamide]
MIC [1]: 16 to 64 µg/mL (≈ 34.6 to 138 µM) | MIC [2]: 16 to 64 µg/mL (≈ 34.6 to 138 µM) | MIC [3]: > 64 µg/mL | MIC APAE006 + PMBN [4]: A (MIC's of 2.0 μg/mL or less = A) | MIC [5]: 2 to 16 µg/mL (≈ 4.32 to 34.6 µM) | MIC [6]: < 2 µg/mL | MIC [7]: < 2 µg/mL | MIC [8]: 2 to 16 µg/mL (≈ 4.32 to 34.6 µM)

O=C(N[C@H](C(=O)NO)C1CCNCC1)c1ccc(C#Cc2ccc(CN3CCOCC3)cc2)cc1 [Example 65-6, N—((S)-hydroxycarbamoyl-piperidin-4-yl-methyl)-4-(4-morpholin-4-ylmethyl-phenylethynyl)-benzamide]
MIC [1]: 16 to 64 µg/mL (≈ 33.6 to 134 µM) | MIC [2]: > 64 µg/mL | MIC [3]: > 64 µg/mL | MIC APAE006 + PMBN [4]: A (MIC's of 2.0 μg/mL or less = A) | MIC [5]: 16 to 64 µg/mL (≈ 33.6 to 134 µM) | MIC [6]: 2 to 16 µg/mL (≈ 4.2 to 33.6 µM) | MIC [7]: 2 to 16 µg/mL (≈ 4.2 to 33.6 µM) | MIC [8]: 16 to 64 µg/mL (≈ 33.6 to 134 µM)

O=C(N[C@H](C(=O)NO)c1ccccc1)c1ccc(C#Cc2ccc(CN3CCOCC3)cc2)cc1 [Example 66-5, N—((S)-hydroxycarbamoyl-phenyl-methyl)-4-(4-morpholin-4-ylmethyl-phenylethynyl)-benzamide]
MIC [1]: 2 to 16 µg/mL (≈ 4.26 to 34.1 µM) | MIC [2]: 2 to 16 µg/mL (≈ 4.26 to 34.1 µM) | MIC [3]: > 64 µg/mL | MIC APAE006 + PMBN [4]: A (MIC's of 2.0 μg/mL or less = A) | MIC [5]: < 2 µg/mL | MIC [6]: < 2 µg/mL | MIC [7]: < 2 µg/mL | MIC [8]: 2 to 16 µg/mL (≈ 4.26 to 34.1 µM)

O=C(N[C@H](C(=O)NO)C1CCCC1)c1ccc(C#Cc2ccc(CN3CCOCC3)cc2)cc1 [Example 66-6]
MIC [1]: 16 to 64 µg/mL (≈ 34.7 to 139 µM) | MIC [2]: 2 to 16 µg/mL (≈ 4.33 to 34.7 µM) | MIC [3]: > 64 µg/mL | MIC APAE006 + PMBN [4]: A (MIC's of 2.0 μg/mL or less = A) | MIC [5]: < 2 µg/mL | MIC [6]: < 2 µg/mL | MIC [7]: < 2 µg/mL | MIC [8]: 16 to 64 µg/mL (≈ 34.7 to 139 µM)

O=C(NC(C(=O)NO)C1CCOCC1)c1ccc(C#Cc2ccc(CN3CCOCC3)cc2)cc1 (stereo not shown) [Example 67-5, N-[hydroxycarbamoyl-(tetrahydro-pyran-4-yl)-methyl]-4-(4-morpholin-4-ylmethyl-phenylethynyl)-benzamide]
MIC [1]: 16 to 64 µg/mL (≈ 33.5 to 134 µM) | MIC [2]: 2 to 16 µg/mL (≈ 4.19 to 33.5 µM) | MIC [3]: > 64 µg/mL | MIC APAE006 + PMBN [4]: A (MIC's of 2.0 μg/mL or less = A) | MIC [5]: < 2 µg/mL | MIC [6]: < 2 µg/mL | MIC [7]: < 2 µg/mL | MIC [8]: 2 to 16 µg/mL (≈ 4.19 to 33.5 µM)
